Literature values, collected in patent publication US12193471B2, “Aerosolizable formulation” (NICOVENTURES TRADING LIMITED, priority 2018, dated 2025).

Conditions: compared to base cyclodextrins such as β-cyclodextrin

In the case of 2-hydroxy-propyl-β-cyclodextrin, the solubility in water is listed as “increased solubility in water”.
